These are literature values, as cited in patent US20250255842A1, “S[…]-RESOLVING LIPID MEDIATORS FOR TREATING LONG COVID-19” (Solutex GC, S.L., priority 2022, published 2025).

The data set deals with thrombus. As to conditions: administration of RvD4; less neutrophil infiltration, more pro-resolving monocytes.

SMILES strings stand for the structures.

In the case of `CC/C=C\C[C@H](O)/C=C/C=C\C\C=C/C=C/C=C/[C@@H](O)[C@@H](O)CCC(=O)O` [RvD4, 4S,5R,17S-trihydroxy-6E,8E,10Z,13Z,15E,19Z-docosahexaenoic acid], the Thrombus burden entry was “significantly reduced”.
